Columns and labels:
Myzus persicae = experiment: Myzus test (spray treatment); assay type: in vivo; conditions: foliar, application rate 500 g/ha, sprayed Chinese cabbage leaf discs, all stages of green peach aphid, read-out: efficacy in % (aphids killed)
Description: Solvent 78 parts by weight of acetone • • 1.5 parts by weight of dimethylformamide
Emulsifier: 0.5 part by weight of alkylaryl polyglycol ether
To prepare an appropriate active ingredient preparation, 1 part by weight of active ingredient is mixed with the stated amounts of solvent and emulsifier, and the concentrate is diluted with emulsifier-containing water to the desired concentration.

[1] = Determination of the log P values (formic acid method)
Description: 1) Description of Method for Determination of the log P Values (Formic Aid Method)
Eluents for determination in the acidic range (pH 3.4):
Eluent A: acetonitrile+1 ml of formic acid/liter. Eluent B: water+0.9 ml of formic acid/liter.
The lambda max values were determined in the maxima of the chromatographic signals using the UV spectra from 200 nm to 400 nm.

[2] = reverse-phase C18 HPLC column, pH 3.4, logP (HCOOH), final compounds table, HPLC reverse-phase C18, acidic range pH 3.4, 55° C.
[3] = reverse-phase C18 HPLC column, pH 3.4, log P (HCOOH), preparation examples, HPLC-MS

Compound | pest or weed control at 500 g/ha (Myzus persicae) [%] | chromatographic logP [1, 2] | chromatographic logP [1, 3] | chromatographic logP ([1]; pH 3.4, logP (HCOOH)) | chromatographic logP ([1]; pH 3.4, log P (HCOOH))
O=C(NS(=O)(=O)c1ccccc1)c1cccc(-c2cnn(-c3cccnc3)c2)n1 [Compound 32] | 90 | 2.26 |  |  | 
Cc1nc(-c2cncc(F)c2)sc1-c1cc(C(=O)NS(C)(=O)=O)n(C)n1 [Compound 63, 3-[2-(5-Fluoropyridin-3-yl)-4-methyl-1,3-thiazol-5-yl]-1-methyl-N-(methylsulphonyl)-1H-pyrazole-5-carboxamide] | 80 | 2.04 | 2.04 |  | 
CN(C)S(=O)(=O)NC(=O)c1cccc(-c2cnc(-c3cncnc3)s2)n1 [Compound 62] | 80 | 1.9 |  |  | 
CCN(CC)S(=O)(=O)NC(=O)c1cccc(-c2cnn(-c3cncnc3)c2)n1 [Compound 38] | 90 |  |  | 2.36 | 
CS(=O)(=O)NC(=O)c1nc(-c2cnn(-c3cccnc3)c2)cs1 [Compound 45] | 90 |  |  | 1.16 | 
CC(=O)Nc1nnc(S(=O)(=O)NC(=O)c2cccc(-c3nnc(-c4cncc(F)c4)s3)n2)s1 [Compound 76] | 100 | 1.43 |  |  | 
CN(C)S(=O)(=O)NC(=O)c1cccc(-c2cnc(-c3cccnc3)s2)n1 [Compound 66] | 100 |  |  | 2.01 | 
CS(=O)(=O)NC(=O)c1cccc(-c2nnc(-c3cncc(F)c3)s2)n1 [Compound 3, 6-[5-(5-Fluoropyridin-3-yl)-1,3,4-thiadiazol-2-yl]-N-(methylsulphonyl)pyridine-2-carboxamide] | 100 |  |  | 1.79 | 1.79
CS(=O)(=O)NC(=O)c1cccc(-c2cnc(-c3cncc(C#N)c3)s2)n1 [Compound 51] | 100 | 1.95 |  |  | 
O=C(NS(=O)(=O)C(F)F)c1cccc(-c2cnc(-c3cncc(F)c3)s2)n1 [Compound 11] | 100 | 1.79 |  |  | 
CS(=O)(=O)NC(=O)c1nc(-c2cnn(-c3cncc(F)c3)c2)cs1 [Compound 46, 4-[1-(5-Fluoropyridin-3-yl)-1H-pyrazol-4-yl]-N-(methylsulphonyl)-1,3-thiazole-2-carboxamide] | 100 | 1.68 | 1.68 |  | 
CC(C)(C)S(=O)(=O)NC(=O)c1cccc(-c2nnc(-c3cncc(F)c3)s2)n1 [Compound 77] | 100 | 2.38 |  |  | 
O=C(NS(=O)(=O)N1CCCCC1)c1cccc(-c2cnc(-c3cncc(F)c3)s2)n1 [Compound 54] | 100 | 3.29 |  |  | 
CS(=O)(=O)NC(=O)c1csc(-c2cnn(-c3cncc(F)c3)c2)n1 [Compound 37] | 90 |  |  | 1.66 | 
CS(=O)(=O)NC(=O)c1cccc(-c2cnc(-c3cncc(Cl)c3)s2)n1 [Compound 17] | 100 | 2.4 |  |  | 
CCS(=O)(=O)NC(=O)c1cccc(-c2cnn(-c3cncc(F)c3)c2)n1 [Compound 26] | 100 |  |  | 2.21 | 
CC(=O)NS(=O)(=O)c1cccc(-c2cnn(-c3cccnc3)c2)n1 [Compound 41, N-({6-[1-(Pyridin-3-yl)-1H-pyrazol-4-yl]pyridin-2-yl}sulphonyl)acetamide] | 100 |  |  | 1.17 | 1.17
O=C(NS(=O)(=O)c1ccccc1)c1cccc(-c2cnc(-c3cncc(F)c3)s2)n1 [Compound 13] | 100 | 2.94 |  |  | 
O=C(NS(=O)(=O)C(F)(F)F)c1cccc(-c2cnc(-c3cncc(F)c3)s2)n1 [Compound 2, 6-[2-(5-Fluoropyridin-3-yl)-1,3-thiazol-5-yl]-N-[(trifluoromethyl)sulphonyl]pyridine-2-carboxamide] | 100 |  |  | 1.86 | 1.86
CCC(=O)NS(=O)(=O)c1cccc(-c2cnn(-c3cccnc3)c2)n1 [Compound 42] | 100 | 1.43 |  |  | 
O=C(NS(=O)(=O)Cc1ccccc1)c1cccc(-c2cnc(-c3cncc(F)c3)s2)n1 [Compound 21] | 80 |  |  | 2.97 | 
COCCS(=O)(=O)NC(=O)c1cccc(-c2cnc(-c3cncc(F)c3)s2)n1 [Compound 55] | 100 | 2.19 |  |  | 
CS(=O)(=O)Nc1cccc(-c2cnn(-c3cccnc3)c2)n1 [Compound 1, N-{6-[1-(Pyridin-3-yl)-1H-pyrazol-4-yl]pyridin-2-yl}methanesulphonamide] | 80 |  |  | 1.26 | 1.26
O=C(NS(=O)(=O)c1ccccc1)c1cccc(-c2cnn(-c3cncnc3)c2)n1 [Compound 23] | 90 | 2.24 |  |  | 
O=C(NS(=O)(=O)C1CC1)c1cccc(-c2cnn(-c3cccnc3)c2)n1 [Compound 30] | 100 |  |  | 1.85 | 

Compound | pest or weed control at 500 g/ha (Myzus persicae) [%] | chromatographic logP [1, 2] | chromatographic logP [1, 3] | chromatographic logP ([1]; pH 3.4, logP (HCOOH)) | chromatographic logP ([1]; pH 3.4, log P (HCOOH))
CCS(=O)(=O)NC(=O)c1cccc(-c2cnc(-c3cncc(F)c3)s2)n1 [Compound 18] | 100 | 2.33 |  |  | 
CCS(=O)(=O)NC(=O)c1cccc(-c2cnn(-c3cccnc3)c2)n1 [Compound 25] | 100 |  |  | 1.77 | 
O=C(NS(=O)(=O)Cc1ccccc1)c1cccc(-c2cnn(-c3cncnc3)c2)n1 [Compound 34] | 90 | 2.28 |  |  | 
CN(C)S(=O)(=O)NC(=O)c1cccc(-c2cnc(-c3cncc(F)c3)s2)n1 [Compound 53] | 100 |  |  | 2.54 | 
CC(C1CC1)N(C)S(=O)(=O)NC(=O)c1cccc(-c2cnc(-c3cncc(F)c3)s2)n1 (centres unmarked) [Compound 61] | 100 |  |  | 3.47 | 
COCCS(=O)(=O)NC(=O)c1cccc(-c2nnc(-c3cncc(F)c3)s2)n1 [Compound 74] | 90 |  |  | 1.97 | 
C#CCN(C(=O)c1cccc(-c2cnc(-c3cncc(F)c3)s2)n1)S(C)(=O)=O [Compound 68] | 100 |  |  | 2.56 | 
CC(C)N(C)S(=O)(=O)NC(=O)c1cccc(-c2cnc(-c3cncc(F)c3)s2)n1 [Compound 60] | 100 |  |  | 3.09 | 
CN(C)S(=O)(=O)NC(=O)c1cccc(-c2cnn(-c3cncc(F)c3)c2)n1 [Compound 16] | 100 | 2.42 |  |  | 
CS(=O)(=O)NC(=O)c1cccc(-c2cnc(-c3cncnc3)s2)n1 [Compound 8] | 100 | 1.48 |  |  | 
Cc1nc(Cl)sc1S(=O)(=O)NC(=O)c1cccc(-c2cnc(-c3cncc(F)c3)s2)n1 [Compound 59] | 100 | 3.41 |  |  | 
O=C(NS(=O)(=O)c1ccccc1)c1cccc(-c2cnn(-c3cncc(F)c3)c2)n1 [Compound 31] | 100 |  |  | 2.82 | 
CCN(CC)S(=O)(=O)NC(=O)c1cccc(-c2cnn(-c3cncc(F)c3)c2)n1 [Compound 39] | 100 |  |  | 2.98 | 
O=C(NS(=O)(=O)CC(F)(F)F)c1cccc(-c2nnc(-c3cncc(F)c3)s2)n1 [Compound 73] | 100 | 2.42 |  |  | 
CC(=O)NS(=O)(=O)c1cccc(-c2cnc(-c3cncc(F)c3)s2)n1 [Compound 67] | 100 | 1.72 |  |  | 
CS(=O)(=O)N(CC#N)C(=O)c1cccc(-c2cnc(-c3cncc(F)c3)s2)n1 [Compound 65] | 90 | 2.28 |  |  | 
CS(=O)(=O)N(c1cccc(-c2cnn(-c3cncc(F)c3)c2)n1)S(C)(=O)=O [Compound 14] | 90 |  |  | 2.15 | 
Cc1noc(C)c1S(=O)(=O)NC(=O)c1cccc(-c2cnc(-c3cncc(F)c3)s2)n1 [Compound 58] | 100 | 3 |  |  | 
CN(C(=O)c1cccc(-c2cnc(-c3cncc(F)c3)s2)n1)S(C)(=O)=O [Compound 52] | 100 | 2.27 |  |  | 
CS(=O)(=O)NC(=O)c1cccc(-c2cnn(-c3cccnc3)c2)n1 [Compound 24] | 100 |  |  | 1.48 | 
CC(C)S(=O)(=O)NC(=O)c1cccc(-c2cnc(-c3cncc(F)c3)s2)n1 [Compound 20] | 100 | 2.61 |  |  | 
CS(=O)(=O)NC(=O)c1cccc(-c2cnn(-c3cncnc3)c2)n1 [Compound 22] | 100 |  |  | 1.38 | 
CC(=O)NS(=O)(=O)c1cccc(-c2cnc(-c3cccnc3)s2)n1 [Compound 69, N-({6-[2-(Pyridin-3-yl)-1,3-thiazol-5-yl]pyridin-2-yl}sulphonyl)acetamide] | 100 |  |  | 1.3 | 1.3
O=C(NS(=O)(=O)C1CC1)c1cccc(-c2cnc(-c3cncc(F)c3)s2)n1 [Compound 6] | 100 |  |  | 2.44 | 
O=C(NS(=O)(=O)Cc1ccccc1)c1cccc(-c2cnn(-c3cccnc3)c2)n1 [Compound 35] | 100 |  |  | 2.44 | 

— patent publication US9044015B2, “Heterocyclic compounds as pesticides” (Bayer CropScience AG, priority 2010, dated 2015)
